Measurements published in US7169787B2, “7-azaindoles, use thereof as phosphodiesterase 4 inhibitors and method for producing the same” (Elbion AG, priority 2000, dated 2007).

Key:
[1] = target: PDE 4; experiment: Inhibition of phosphodiesterase 4 (enzyme preparation from human PMNL, [3H]-cAMP); format: biochemical; conditions: PDE 4 from human PMNL cytosol, 0.5 μM [3H]-cAMP
Method: The PDE 4 activity is determined in enzyme preparations from human polymorphonuclear […] (PMNL) and the PDE 2, 3 and 5 activity is determined with PDE from human thrombocytes. Human blood was anti-coagulated with citrate. By centrifuging at 700×g for 20 minutes at room temperature, the thrombocyte-rich plasma in the supernatant is separated from the erythrocytes and leukocytes. The thrombocytes are lysed by ultrasound and used in the PDE 3 and PDE 5 assays. For the determination of the PDE 2 activity, the cytosolic thrombocyte fraction is purified on an anionic exchange column by means of NaCl gradients and the PDE 2 peak is obtained for the assay. The PMNLs for the PDE 4 determination are isolated by a subsequent dextran sedimentation, followed by a gradient centrifugation with Ficoll-Paque. After the cells have been washed twice, the erythrocytes, still contained, are lysed within 6 minutes at 4° C. by the addition of 10 mL of hypotonic buffer (155 mM of NH4Cl, 10 mM of NaHCO3, 0.1 mM of EDTA, pH=7.4). The PMNLs, which are still intact, are washed twice with PBS and lysed with ultrasound. The supernatant of a one-hour centrifugation at 4° C. at 48,000×g contains the cytosolic fraction of the PDE 4 and is used for the PDE 4 measurements.
The phosphodiesterase activity is determined using the method described by Thompson et al. with some modifications (Thompson, W. J. and M. M. Appleman, Assay of cyclic nucleotide phosphodiesterase and resolution of multiple molecular forms of the enzyme, Adv. Cycl. Nucl. Res. 1979, 10, 69–92).
The reaction mixtures contain 50 mM of tris hydrochloride (pH 7.4), 5 mM of magnesium chloride, the inhibitors in various concentrations, the corresponding enzyme preparation as well as the further components necessary for determining the individual isoenzymes (see below). The reaction is started by the addition of the substrate, 0.5 μM of [^3H]-cAMP or [^3H]-cGMP (approximately 6000 CPM per test). The final volume is […]. Test substances are mixed as stock solutions in DMSO. The DMSO concentration in the reaction mixture is 1% v/v. The PDE activity is not affected by this concentration of DMSO. After the reaction is started by the addition of substrate, samples are incubated for 30 minutes at 37° C. The reaction is stopped by heating the test tubes for 2 minutes at 110° C. The samples remain for a further 10 minutes in ice. The addition of 30 μL of 5′-nucleotidase (1 mg/mL, from a poisonous snake suspension from Crotalus adamanteus) is followed by a 10-minutes incubation at 37° C. The samples are stopped on ice, in each case 400 μL of a mixture of Dowex, water and ethanol (1+1+1) is added, mixed well and incubated once again for 15 minutes on ice. The reaction vessels are centrifuged for 20 minutes at 3000×g. Aliquots of the supernatant (200 μL) are transferred directly to scintillation vessels. After the addition of 3 mL of scintillator, the samples are measured in the beta counter.
[^3H]-cAMP is used as substrate for the determination of the PDE 4, 3 and 2 activity and [^3H]-cGMP is used as substrate for the determination of the PDE 5 activity. The enzyme activities, which are nonspecific in each case, are determined in the presence of 100 μM of Rolipram for the determination of PDE 4 and in the presence of 100 μM of IBMX for the determination of the PDE 3 and 5 and subtracted from the test values. The incubation formulations of the PDE 3 assays contained 10 μM of Rolipram, in order to inhibit possible contaminations by PDE 4. The PDE 2 is tested with an SPA assay of the Amersham Company. The assay is carried out in the presence of the activator of the PDE 2 (5 μM of cGMP).

[2] = test system: Lewis Rats; experiment: Inhibition of the lipopolysaccharide (LPS)-induced lung neutrophilia; format: in vivo, rat; conditions: 1 mg/kg p.o., 2 h before LPS provocation; BAL 6 h after provocation
Method: The inhibition of pulmonary neutrophil infiltration by the inventive substances is tested on male Lewis Rats (250–350 g). On the day of the experiments, the animals are placed individually in open 1 L Plexiglas boxes, which are connected to a head-nose exposure device. The animals are exposed to an aerosol of a lipopolysaccharide suspension (100 μg LPS/mL of 0.1% hydroxylamine solution) in PBS (LPS provocation). The LPS/hydroxylamine aerosol is nebulized by a nebulizer (Bird Micronebulizer, Palm Springs Calif., USA), which is operated with compressed air (0.2 MPa). The exposure time is 40 minutes, normal controls being nebulized also for 40 minutes with an aerosol of 0.1% hydroxylamine solution in PBS.
Six hours after the LPS provocation, there is a maximum, massive migration of neutrophil granulocytes into the lungs of the animals. At this time, the animals are anesthetized with an excess of ethyl urethane (1.5 g/kg of body weight i.p.) and a bronchoalveolar lavage (BAL) with 3×4 mL of Hank's balance solution is carried out. The total cell count and the number of neutrophil granulocytes of the pooled BAL liquid are subsequently determined with an automatic cell differentiation instrument (Bayer Diagnostics Technicon HIE). For each animal, the neutrophiles (NEUTRO) in the BAL are calculated in millions/animal: NEUTRO/μl×BAL recovery (mL)=NEUTRO/animal.
For each test, 2 control groups were also run (nebulization with 0.1% hydroxylamine solution in PBS and nebulization with 100 μg LPS/mL of 0.1% hydroxylamine solution in PBS).
The percentage inhibition of the neutrophilia of the experimental group, treated with substance, was calculated according to the following formula: {((LPSC−SC)−(LPSD−SC))/(LPSC−SC)}×100%=% inhibition SC=vehicle-treated control group challenged with 0.1% hydroxylamine solution; LPSC=vehicle-treated control group challenged with LPS (100 μg/mL 0.1% hydroxylamine solution); LPSD=substance-treated experimental group challenged with LPS (100 μg/mL 0.1% hydroxylamine solution) […]

For `Cc1ccc(Cn2cc(C(=O)C(=O)Nc3c(Cl)cncc3Cl)c3cccnc32)cc1` [Example 22], the melting point was 176 to 178 °C, the IC50 [1] was 2 nM and the “Inhibition of neutrophilia (table titled Inhibition of Eosinophilia)” value [2] was 64%.
